Data: PMC12561453, “Synthesis and Structure–Activity Relationship Study of 2-(amino)quinazolin-4(3H)-one Derivatives as Potential Inhibitors of Methicillin-Resistant Staphylococcus aureus (MRSA)” (Antibiotics, 2025)
≈ marks a conversion by molar mass, not a printed value. Where two headings read alike, the source gives them in different places.

Tests used:
[1] = system: S. aureus USA300 JE2 expressing GFP in H460 cells; assay: microbe, parasite or virus in culture; assay type: cell-based, Staphylococcus aureus; conditions: for MIC50: Staphylococcus aureus, USA300, 24 h, read-out: H460 Assay MIC50 (MIC50 ex vivo)
Text: Staphylococcus aureus, including MRSA, can invade host cells and replicate intracellularly, which complicates treatment with current therapies. To evaluate the intracellular antibacterial activities of the selected compounds, the fifteen compounds tested for cytotoxicity were further assessed using a cell infection model based on H460 human lung epithelial cells, which mimic MRSA-mediated pneumonia. H460 cells were infected with the USA300 JE2 expressing green fluorescent protein (GFP) and subsequently treated with the compounds in a dose–response manner, along with three reference antibiotics: vancomycin, linezolid, and erythromycin. After 24 h of incubation, bacterial loads were quantified by measuring GFP fluorescence in each well. MIC50 values determined in the H460 infection model (MIC50 ex vivo) were generally higher than those obtained from the in vitro tests, likely due to either limited compound penetration into host cells or reduced antibacterial effect of the compounds against intracellular bacteria (Figure 3, Table 2). […] These findings underscore the potential of compound 6y as a promising lead for further development as a novel antistaphylococcal agent.
To see the ex vivo antimicrobial activity of the compound, the human lung carcinoma cell line H460 (ATCC #HTB-177) was used. The H460 cells were cultured in RPMI 1640 medium with 10% fetal bovine serum (FBS) and in a 96-well microplate at 37 °C and 5% CO2. Cell lines were cultured for 2 days, until they reached full confluence in the well. S. aureus (USA300-containing and pCM29-encoding GFP) was cultured in CAMHB with 10 µg/mL of chloramphenicol, and bacterial cells were harvested. After washing the bacterial cells with phosphate-buffered saline (PBS) and suspending them in RPMI, infected H460 cells with S. aureus (1 × 10^7 CFU) and incubated them for 2.5 h. Samples were washed three times with PBS. Then, cells were treated with gentamicin (50 µg/mL of gentamicin in RPMI) and incubated for 1 h. Samples were washed with PBS, RPMI-containing diluted compounds were added, and then they were incubated at 37 °C in 5% CO2 for 24 h. To detect the Green fluorescent protein (GFP) signal, an Ensight multimode plate reader and Opera Phenix Plus (Revvity, Waltham, MA, USA) were used.
Ex vivo infection model images were generated using the Opera Phenix Plus high-content imaging system. Images were obtained by a confocal microscope with a 20× water objective lens. To detect the bacteria fluorescence signal (GFP), the Alexa 488 channel (488 nm laser/500–550 filter, Thermo Fisher Scientific, Waltham, MA, USA) was used, and the brightfield channel was used for H460 cell images.
Figure 3 Antibacterial activities of 2-(amino)quinazolin-4(3H)-one derivatives in the H460 infection model. H460 cells were infected with S. aureus USA300 JE strain expressing GFP, followed by treatment with serial dilutions of 2-(amino)quinazolin-4(3H)-one derivatives. After incubation at 37 °C for 24 h with 5% CO2, fluorescence signals of the bacteria were detected at 488 nm/510 nm using a multilabel plate reader.

HepG2 cells = assay: In vitro cytotoxicity, HepG2 viability (resazurin); assay type: cell-based, human; conditions: Homo sapiens, HepG2, 24 h, read-out: HepG2 IC50
Description: The in vitro cytotoxicity of the compounds was evaluated by measuring the viability of HepG2 cells, a human liver cell line, following treatment in a dose–response manner, as previously described. […] The efficacy window was calculated as the ratio of IC50 in HepG2 cells to MIC50 against JE2.
To test cytotoxicity with compounds, the human liver cell line HepG2 (ATCC #HB-8065) was used for the assay. HepG2 was cultured in DMEM with 10% fetal bovine serum (FBS) in a 96-well microplate at 37 °C and 5% CO2. HepG2 cells were seeded at a final density of 5 × 10^4 cells/well, and DMEM-containing diluted compounds were added and incubated on the plates at 37 °C in 5% CO2 for 24 h. After that, resazurin (final concentration, 0.1 mg/mL) was added to each well and incubated on the plates at 37 °C in 5% CO2 for 2 h. To detect the fluorescence at 530 nm excitation and 590 nm emission, an Ensight multimode plate reader was used (Revvity, Waltham, MA, USA).

S. aureus ATCC25923 = assay: Broth microdilution dose-response, S. aureus ATCC25923; assay type: cell-based, Staphylococcus aureus
Text: (§1) The antistaphylococcal activities (MIC50) of the synthesized compounds were examined via a previously described broth microdilution method against two S. aureus strains: ATCC25923, a methicillin-sensitive reference strain, and JE2, a methicillin-resistant strain of the USA300 lineage (Figure 2, Table 1).
(§2) Staphylococcus aureus USA300, a methicillin-resistant strain, was obtained from the Nebraska Transposon Mutant Library. Staphylococcus aureus ATCC25923, a pan-drug-susceptible strain, was purchased from the American Type Culture Collection (ATCC) (Manassas, VA, USA). S. aureus strains were grown in Cation-Adjusted Mueller–Hinton broth (CAMHB) (Difco) at 37 °C. Bacterial strain stocks were stored in vials with 25% glycerol at −80 °C. For each experiment, overnight cultures were prepared by inoculating a frozen bacterial strain stock in 10 mL of CAMHB medium and incubating at 37 °C in a shaking incubator (180 rpm). For the preliminary screen and dose–response experiments, 100 µL of overnight culture was inoculated into 10 mL of fresh CAMHB and incubated for 3 h at 37 °C and 180 rpm.
(§3) Antibiotic susceptibility assay was tested according to modified Clinical and Laboratory Standards Institute (CLSI) laboratory guidelines for broth microdilution assays. S. aureus was cultured in CAMHB, and bacterial cells were prepared with an OD600 of 0.005. DRC plates were prepared by adding 40 µL of bacterial suspension to each well, where 10 µL of each compound had been dispensed for […] of two-fold serial dilutions starting at […]. After incubation of the plates at 37 °C for 18–24 h with 5% CO2, the growth of S. aureus was detected by measuring the OD600nm using an Ensight (Revvity) spectrometer (Revvity, Waltham, MA, USA).
(§4) Figure 2 In vitro antibacterial activities of 2-(amino)quinazolin-4(3H)-one derivatives. S. aureus ATCC25923 (blue) and USA300 JE (orange) strains were incubated with serial dilutions of 2-(amino)quinazolin-4(3H)-one derivatives (0.19–100 µM) for 18–24 h. The dose–responses were observed by measuring OD600nm. The plots were drawn from each group of strains with nonlinear curve fits.

S. aureus USA300 JE2 = assay: Broth microdilution dose-response, S. aureus USA300 JE2 (MRSA); assay type: cell-based, Staphylococcus aureus; conditions: for fold better antibacterial activity against JE2 compared to compound 1: JE2, versus compound 1
Text: as §1, §2, §3, §4

[2] = Staphylococcus aureus, ATCC25923, methicillin-sensitive strain, OD600 after 18–24 h, read-out: ATCC25923 MIC50
[3] = methicillin-sensitive strain, OD600 after 18–24 h, read-out: ATCC25923 MIC50
[4] = Staphylococcus aureus, USA300, USA300 JE2, methicillin-resistant, OD600 after 18–24 h, read-out: USA300 MIC50
[5] = USA300 JE2, methicillin-resistant, OD600 after 18–24 h, read-out: USA300 MIC50

Compound | MIC50 [1] | IC50 (HepG2 cells; HepG2 cells, 24 h, resazurin) | MIC50 (S. aureus ATCC25923; [2]) | MIC50 (S. aureus ATCC25923; [3]) | fold better antibacterial activity against JE2 compared to compound 1 (S. aureus USA300 JE2) | H460 Assay MIC50 (MIC50 ex vivo) ([1]; H460 cells infected with USA300 JE2-GFP, 24 h, GFP fluorescence) | IC50 (HepG2 cells) | MIC50 (S. aureus ATCC25923; Staphylococcus aureus, ATCC25923, read-out: ATCC25923 MIC50) | MIC50 (S. aureus USA300 JE2; Staphylococcus aureus, USA300, read-out: USA300 MIC50) | MIC50 (S. aureus USA300 JE2; [4]) | MIC50 (S. aureus USA300 JE2; [5])
O=c1[nH]c(Nc2cc(Cl)cc(Cl)c2)nc2cc([N+](=O)[O-])ccc12 [6e, 2-((3,5-Dichlorophenyl)amino)-7-nitroquinazolin-4(3H)-one] | 68.8 µM (≈ 24.2 µg/mL) | 9.3 µM | 3 to 6 µM (≈ 1.05 to 2.11 µg/mL) | 3.0 µM (≈ 1.05 µg/mL) | at least 6.5 fold |  |  |  |  |  | 
O=c1[nH]c(Nc2cc(Cl)cc(Cl)c2)nc2c(Cl)cc(Cl)cc12 [6i, 6,8-Dichloro-2-((3,5-dichlorophenyl)amino)quinazolin-4(3H)-one] | 26.5 µM (≈ 9.94 µg/mL) | 39.5 µM | 3 to 6 µM (≈ 1.13 to 2.25 µg/mL) | 5.7 µM (≈ 2.14 µg/mL) | at least 6.5 fold |  |  |  |  |  | 
CN[C@H](CC(C)C)C(=O)N[C@H]1C(=O)N[C@@H](CC(N)=O)C(=O)N[C@H]2C(=O)N[C@H]3C(=O)N[C@H](C(=O)N[C@H](C(=O)O)c4cc(O)cc(O)c4-c4cc3ccc4O)[C@H](O)c3ccc(c(Cl)c3)Oc3cc2cc(c3O[C@@H]2O[C@H](CO)[C@@H](O)[C@H](O)[C@H]2O[C@H]2C[C@](C)(N)[C@H](O)[C@H](C)O2)Oc2ccc(cc2Cl)[C@H]1O [Vancomycin, reference compound] | 7.7 µM (≈ 11.2 µg/mL) |  |  |  |  | 7.7 µM | > 100 µM | 0.3 µM (≈ 0.435 µg/mL) | 0.35 µM (≈ 0.507 µg/mL) |  | 
O=c1[nH]c(NCc2ccc(Cl)cc2Cl)nc2cc(Cl)ccc12 [6x, 7-Chloro-2-((2,4-dichlorobenzyl)amino)quinazolin-4(3H)-one] | 17.8 µM (≈ 6.31 µg/mL) | 15.3 µM | 2.1 to 4.5 µM (≈ 0.745 to 1.6 µg/mL) | 3.4 µM (≈ 1.21 µg/mL) |  |  |  |  |  | 0.9 to 3 µM (≈ 0.319 to 1.06 µg/mL) | 1.7 µM (≈ 0.603 µg/mL)
O=c1[nH]c(Nc2cc(Cl)cc(Cl)c2)nc2cc(C(F)(F)F)ccc12 [6k, 2-((3,5-Dichlorophenyl)amino)-7-(trifluoromethyl)quinazolin-4(3H)-one] | 6 µM (≈ 2.24 µg/mL) | 10.5 µM | 1.3 µM (≈ 0.486 µg/mL) |  |  |  |  |  |  | 0.3 µM (≈ 0.112 µg/mL) | 
O=c1[nH]c(Nc2cc(Cl)cc(Cl)c2)nc2ccccc12 [6j, 2-((3,5-Dichlorophenyl)amino)quinazolin-4(3H)-one] | 35.4 µM (≈ 10.8 µg/mL) | 29.7 µM | 3 to 6 µM (≈ 0.918 to 1.84 µg/mL) | 5.9 µM (≈ 1.81 µg/mL) | at least 6.5 fold |  |  |  |  |  | 
O=c1[nH]c(Nc2cc(Cl)cc(Cl)c2)nc2cc(F)c(F)cc12 [6g, 2-((3,5-Dichlorophenyl)amino)-6,7-difluoroquinazolin-4(3H)-one] | 25.3 µM (≈ 8.66 µg/mL) | 12.9 µM | 3 to 6 µM (≈ 1.03 to 2.05 µg/mL) | 4.0 µM (≈ 1.37 µg/mL) | at least 6.5 fold |  |  |  |  |  | 
O=c1[nH]c(Nc2cccc(Cl)c2)nc2cc(Cl)ccc12 [6u, 7-Chloro-2-((3-chlorophenyl)amino)quinazolin-4(3H)-one] | 19.2 µM (≈ 5.88 µg/mL) | 4.3 µM | 2.1 to 4.5 µM (≈ 0.643 to 1.38 µg/mL) | 3.5 µM (≈ 1.07 µg/mL) |  |  |  |  |  | 0.9 to 3 µM (≈ 0.276 to 0.918 µg/mL) | 1.1 µM (≈ 0.337 µg/mL)
